The compounds below were run against T1, human JAK2 (Homo sapiens, UniProt O60674) (assay: In vitro JAK kinase assay (HTRF, phosphorylation of biotinylated peptide)). Conditions: catalytic domain a.a. 828-1132, 30 μM ATP, 500 nM peptide, room temperature 1 hr; read-out: JAK-2 IC50.
T1 construct: JAK2 (a.a. 828-1132); His tag (N); made in house; host or cells: insect cells (baculovirus)
Type: biochemical
How it was run: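 IC50 from HTRF detection (Eu-Py20 antibody, SA-APC) of biotinylated-peptide phosphorylation (500 nM), run 1 h at RT. Enzyme: N-His human JAK2 kinase domain a.a. 828-1132 from insect cells; ATP 30 μM; buffer 50 mM Tris pH 7.8 with NaCl, DTT, BSA.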

T1 sequence (O60674 828-1132): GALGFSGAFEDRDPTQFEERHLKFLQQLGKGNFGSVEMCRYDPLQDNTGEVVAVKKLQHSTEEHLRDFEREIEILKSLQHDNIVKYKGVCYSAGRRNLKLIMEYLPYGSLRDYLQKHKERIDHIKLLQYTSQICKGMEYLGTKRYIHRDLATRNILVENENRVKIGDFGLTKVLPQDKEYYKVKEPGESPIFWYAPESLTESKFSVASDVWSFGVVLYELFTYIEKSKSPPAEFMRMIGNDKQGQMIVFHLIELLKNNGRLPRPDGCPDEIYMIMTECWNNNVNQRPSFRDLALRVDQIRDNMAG

IC50, < 100 nM:
Cc1cnc(Nc2ccc(N3CCNCC3)cc2)nc1-c1cnn(C(CC#N)C2CCCC2)c1 (racemic) [Example 78, 3-cyclopentyl-3-(4-(5-methyl-2-(4-(piperazin-1-yl)phenylamino)pyrimidin-4-yl)-1H-pyrazol-1-yl)propanenitrile]
CCS(=O)(=O)N1CC(CC#N)(n2cc(-c3ccnc(Nc4ccc(C(=O)N5CCC(C#N)CC5)cc4)n3)cn2)C1 (racemic) [Example 319, 1-{4-[(4-{1-[3-(cyanomethyl)-1-(ethylsulfonyl)azetidin-3-yl]-1H-pyrazol-4-yl}pyrimidin-2-yl)amino]benzoyl}piperidine-4-carbonitrile]
N#CCC(C1CCC1)n1cc(-c2ccnc(Nc3ccc(N4CCCCC4=O)cc3)n2)cn1 (racemic) [Example 174, 3-cyclobutyl-3-(4-(2-(4-(2-oxopiperidin-1-yl)phenylamino)pyrimidin-4-yl)-1H-pyrazol-1-yl)propanenitrile]
N#CCC1(n2cc(-c3ccnc(Nc4cccc(-c5cnco5)c4)n3)cn2)CC(C#N)C1 (single isomer, unassigned) [Example 343, 3-(cyanomethyl)-3-[4-(2-{[3-(1,3-oxazol-5-yl)phenyl]amino}pyrimidin-4-yl)-1H-pyrazol-1-yl]cyclobutanecarbonitrile]
N#CCC(C1CCCC1)n1cc(-c2ccnc(Nc3cccc(C(=O)N4CCCC4)c3)n2)cn1 (racemic) [Example 139, 3-cyclopentyl-3-(4-(2-(3-(pyrrolidine-1-carbonyl)phenylamino)pyrimidin-4-yl)-1H-pyrazol-1-yl)propanenitrile]
CC(=O)Nc1ccc(Nc2ncc(C)c(-c3cnn(C(CC#N)C4CCCC4)c3)n2)cc1 (racemic) [Example 76, N-(4-(4-(1-(2-cyano-1-cyclopentylethyl)-1H-pyrazol-4-yl)-5-methylpyrimidin-2-ylamino)phenyl)acetamide]
N#CCC(C1CCCC1)n1cc(-c2ccnc(Nc3ccc(C(=O)NCC4CCOCC4)cc3)n2)cn1 (racemic) [Example 214, 4-(4-(1-(2-cyano-1-cyclopentylethyl)-1H-pyrazol-4-yl)pyrimidin-2-ylamino)-N-((tetrahydro-2H-pyran-4-yl)methyl)benzamide]
CCOC(=O)N1CCC(NC(=O)c2ccc(Nc3nccc(-c4cnn(C(CC#N)C5CC5)c4)n3)cc2)CC1 (racemic) [Example 272, Ethyl 4-(4-(4-(1-(2-cyano-1-cyclopropylethyl)-1H-pyrazol-4-yl)pyrimidin-2-ylamino)benzoyl)aminopiperidine-1-carboxylate]
Cc1cc(OC2CCC(CC#N)(n3cc(-c4ccnc(Nc5ccc(-n6cccn6)cc5)n4)cn3)CC2)no1 (single isomer, unassigned) [Example 246, 2-(1-(4-(2-(4-(1H-pyrazol-1-yl)phenylamino)pyrimidin-4-yl)-1H-pyrazol-1-yl)-4-(5-methylisoxazol-3-yloxy)cyclohexyl)acetonitrile]
Cc1cnc(Nc2ccccc2)nc1-c1cnn(C(CC#N)CC2CCN(S(=O)(=O)c3ccn(C)n3)CC2)c1 (racemic) [Example 65, 4-(1-(1-methyl-1H-pyrazol-3-ylsulfonyl)piperidin-4-yl)-3-(4-(5-methyl-2-(phenylamino)pyrimidin-4-yl)-1H-pyrazol-1-yl)butanenitrile]
N#CCC1(n2cc(-c3ccnc(Nc4ccc(C(=O)N5CC[C@H](F)C5)cc4)n3)cn2)CC(C#N)C1 (single isomer, unassigned) [Example 294]
N#CCC(C1CCCC1)n1cc(-c2ccnc(Nc3ccc(C(=O)N4CC[C@H](C#N)C4)cc3)n2)cn1 (mixture of isomers) [Example 225, (3S)-1-(4-(4-(1-(2-cyano-1-cyclopentylethyl)-1H-pyrazol-4-yl)pyrimidin-2-ylamino)benzoyl)pyrrolidine-3-carbonitrile]
N#CCC(C1CCCC1)n1cc(-c2ccnc(Nc3cccc(C(=O)N4CCN(c5ccc(C#N)cc5)CC4)c3)n2)cn1 (racemic) [Example 166, 4-(4-(3-(4-(1-(2-cyano-1-cyclopentylethyl)-1H-pyrazol-4-yl)pyrimidin-2-ylamino)benzoyl)piperazin-1-yl)benzonitrile]
Cc1cnc(Nc2ccccc2)nc1-c1cnn(C(CC#N)C2CCCC2)c1 (racemic) [Example 73, 3-cyclopentyl-3-(4-(5-methyl-2-(phenylamino)pyrimidin-4-yl)-1H-pyrazol-1-yl)propanenitrile]
COc1cnc(Nc2ccc(-c3cnco3)cc2)nc1-c1cnn(C(CC#N)C2CCCC2)c1 (racemic) [Example 131, 3-cyclopentyl-3-(4-(5-methoxy-2-(4-(oxazol-5-yl)phenylamino)pyrimidin-4-yl)-1H-pyrazol-1-yl)propanenitrile]
COC(=O)Nc1ccc(Nc2ncc(C)c(-c3cnn(C(CC#N)C4CCCC4)c3)n2)cc1 (racemic) [Example 90, Methyl 4-(4-(1-(2-cyano-1-cyclopentylethyl)-1H-pyrazol-4-yl)-5-methylpyrimidin-2-ylamino)phenylcarbamate]
CC(=O)Nc1ccc(Nc2nccc(-c3cnn(C(CC#N)C4CCCC4)c3)n2)cc1 (racemic) [Example 39, N-(4-(4-(1-(2-cyano-1-cyclopentylethyl)-1H-pyrazol-4-yl)pyrimidin-2-ylamino)phenyl)acetamide]
COc1cnc(Nc2ccc(C(=O)N(C)C)cc2)nc1-c1cnn(C(CC#N)C2CCCC2)c1 (racemic) [Example 104, 4-(4-(1-(2-cyano-1-cyclopentylethyl)-1H-pyrazol-4-yl)-5-methoxypyrimidin-2-ylamino)-N,N-dimethylbenzamide]
N#CCC1(n2cc(-c3ccnc(Nc4ccc(N5CCOC5=O)cc4)n3)cn2)CC(C#N)C1 (single isomer, unassigned) [Example 339, 3-(cyanomethyl)-3-[4-(2-{[4-(2-oxo-1,3-oxazolidin-3-yl)phenyl]amino}pyrimidin-4-yl)-1H-pyrazol-1-yl]cyclobutanecarbonitrile]
CN(C)C(=O)C1CCN(C(=O)c2ccc(Nc3nccc(-c4cnn(C(CC#N)C5CCCC5)c4)n3)cc2)CC1 (racemic) [Example 234, 1-(4-(4-(1-(2-cyano-1-cyclopentylethyl)-1H-pyrazol-4-yl)pyrimidin-2-ylamino)benzoyl)-N,N-dimethylpiperidine-4-carboxamide]
N#CCC1(n2cc(-c3ccnc(Nc4ccc(C(=O)N5CC[C@@H](C#N)C5)cc4)n3)cn2)CC(C#N)C1 (stereo partly drawn) [Example 297, (R)-1-(4-(4-(1-(3-cyano-1-(cyanomethyl)cyclobutyl)-1H-pyrazol-4-yl)pyrimidin-2-ylamino)benzoyl)pyrrolidine-3-carbonitrile]
N#CCC1(n2cc(-c3ccnc(Nc4ccc(-n5cccn5)cc4)n3)cn2)CN(S(=O)(=O)C2CC2)C1 (racemic) [Example 17, 2-(3-(4-(2-(4-(1H-pyrazol-1-yl)phenylamino)pyrimidin-4-yl)-1H-pyrazol-1-yl)-1-(cyclopropylsulfonyl)azetidin-3-yl)acetonitrile]
